In this experiment the test system is isolated human hair follicles. As to the kind of experiment: in vitro hair follicle growth test (elongation of isolated hair follicles in culture medium). The format is cell-based. Here is the method: The effect of compounds on hair growth was assessed using an in vitro test which measures the elongation of isolated human hair follicles in a culture medium.
This test includes the important step of isolating hair follicles having an undamaged hair bulb from skin, preferably from human skin, by microdissection.
The critical step of separating the hair follicle with intact undamaged hair bulb from the subcutaneous fatty tissue in which it is situated accordingly involves severing the hair shaft of the follicle at a point below the epidermis of skin surface, so as to leave the hair bulb intact and undamaged while still bearing a portion of the hair shaft.
Preferably, the hair shaft of the follicle is severed at the dermal-subcutaneous fat interface.
Any suitable cutting instrument can be employed to sever the hair shaft in this manner, but a keratotome or a scalpel are preferred.
The hair bulb with a hair shaft stump attached is then isolated from the skin by mechanically separating the hair from loosely adhering subcutaneous fat which normally surrounds the hair bulb. This is achieved after the dermis or upper layer of the skin has been separated and removed, to avoid damaging the hair bulb as it is pulled away.
The hair bulb together with hair shaft stump attached, is then transferred in an otherwise undamaged and fully functioning, viable state to a nutrient medium.
The hair follicles isolated by the technique described herein are transferred to a suitable culture medium for subsequent testing of substances that can then influence their future development.
The procedure now to be described represents a preferred method of culture and testing of hair growth.
In accordance with the preferred method of culture, isolated hair follicles are maintained in 500µl of Williams E medium, either with or without a test hair growth substance, at 37°C in an atmosphere of 5% CO₂ + 95% air in individual wells of a 24 multiwell dish (Corning), which permits detailed measurements to be made of the length of individual hair follicles.
Williams E medium is available from FLOW Laboratory under Catalogue No. 12-502. The formula of Williams E medium is described by Williams GM, et al., in Experimental Cell Research 69 (1971) on page 106.
Hair shaft length measurements can be made on these follicles, using a Nikon Diaphot inverted binocular or similar microscope with eye piece measuring graticules, […], during which time the follicles will signficiantly increase in length in response to a hair growth stimulant.
The response of an isolated hair follicle to a test substance, can accordingly be assessed by mesuring the increase in length, if any, in the presence of a test substance against a control. […]

Turning to `CCCCCCCCCCCCCCCC(=O)O` [Na palmitate], where the note is “144 h, 0.5mM in Williams E medium supplemented with glucose (50mM), relative to a control value of 1.0, mean of 5 follicles from each of 5 human subjects (25 follicles), read-out: Hair follicle growth after 6 days”, the activity at 500 µM was determined as 180%.
With `CC(O)CC(=O)O` (stereo not shown) [Na 3-hydroxybutyrate], the activity at 1000 µM (144 h, 1 mM in Williams E medium supplemented with glucose (50mM), relative to a control value of 1.0, mean of 5 follicles from each of 5 human subjects (25 follicles), read-out: Hair follicle growth after 6 days) came out at 280%.
In the case of `NC(=O)CC[C@H](N)C(=O)O` [Glutamine, glutamine], the activity at 2000 µM (144 h, 2mM in Williams E medium supplemented with glucose (50mM), relative to a control value of 1.0, mean of 5 follicles from each of 5 human subjects (25 follicles), read-out: Hair follicle growth after 6 days) is 400%. For the same compound, the “hair growth, as compared with the control” value (summary in words of the table's results, Williams E medium supplemented with glucose (50mM)) was “most effective”.
